Data: US5137811A, “Method for diagnosing periodontal diseases with a substrate specific for aminopeptidase activity of periodontopathic bacteria” (Sunstar Kabushiki Kaisha, priority 1986, dated 1992)
Blank lines part the entries; values can stand above or below the molecule they belong to. Where a SMILES comes first, the peptide text is derived from it. The star is where a group is joined. βNA = c1ccc2cc(N*)ccc2c1; Cbz = O=C(OCc1ccccc1)*; Bz = O=C(c1ccccc1)*

Assays:
[1] = test system: Treponema denticola; test: Hydrolytic activity of oral anaerobe cell suspension on aminopeptidase substrates (Experiment 1); assay type: cell-based; settings: four strains, substrate 0.2 mM, pH 7.0, 37° C., 60 minutes, Table 1
In short: (§1)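 Treponema grown anaerobically in TYGVS (37 °C, 7 days) and other strains in brain heart infusion (37 °C, 48–72 h), then diluted to A660 1.0. Cells reacted 60 min at 37 °C with β-naphthylamine-derived substrates (0.2 mM solution, 0.1 M Tris-HCl pH 7.0). Garnet GBC coupling, A525 after 15 min; activity graded from mean released β-naphthylamine per strain.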

[2] = test system: Fusobacterium nucleatum; test: as above; assay type: cell-based; settings: three strains, substrate 0.2 mM, pH 7.0, 37° C., 60 minutes, Table 1
In short: as §1

[3] = test system: Actinobacillus actinomycetemcomitans; test: as above; assay type: cell-based; settings: four strains, substrate 0.2 mM, pH 7.0, 37° C., 60 minutes, Table 1
In short: as §1

[4] = test system: Bacteroides gingivalis; test: as above; assay type: cell-based; settings: five strains, substrate 0.2 mM, pH 7.0, 37° C., 60 minutes, Table 1
In short: as §1

[5] = test system: Capnocytophaga sp.; test: as above; assay type: cell-based; settings: four strains, substrate 0.2 mM, pH 7.0, 37° C., 60 minutes, Table 1
In short: as §1

[6] = test system: Treponema denticola; test: Hydrolytic activity of cell suspension, substrates alone or in combination (Experiment 3); assay type: cell-based; settings: four strains, Table 3
Method: (§2) The strains of Treponema were anaerobically cultivated using TYGVS media at 37° C. for 7 days, while other bacterial strains were cultivated using brain heart infusion broth at 37° C. for 48 to 72 hours. Each culture was diluted to obtain a bacterial cell suspension, the absorption at 660 nm of which was 1.0.
(§3) Substrate compounds for aminopeptidase enzyme having various color developing groups derived from β-naphthylamine were dissolved in 0.1M Tris-HCl buffer (pH 7.0) at the concentration of 0.2 mM to obtain substrate solutions.
(§4) To the substrate solution (1.5 ml) was added the above cell suspension (0.3 ml) and reacted at 37° C. for 60 minutes. After completion of the reaction, a coloring reagent [prepared by dissolving diazonium salt of Garnet GBC in 1M acetate buffer (containing 10% Tween 20, pH: 4.2) at the concentration of 0.5 mg/ml] was added and, after 15 minutes, the absorption at 525 nm was determined with a spectrophotometer.
(§5) On the basis of the average amount of released β-naphthylamine in each strain, the hydrolytic activity was expressed as follows: […]
(§6) According to the same manner as described in Experiment 1, periodontopathic bacteria specific aminopeptidase activity was tested by using four strains of Treponema denticola, five strains of B. gingivalis, four strains of Actinobacillus actinomycetemcomitans, two strains of Actinomyces israelli and three strains of Fusobacterium nucleatum. Abbreviations in Table 3 are the same as those in Tables 1 and 2. Hydrolytic activity "+++" means "40≤release amount<80 nmol/ml" and "++++" means "release amount≥80 nmol/ml".

[7] = test system: Fusobacterium nucleatum; test: as above; assay type: cell-based; settings: three strains, Table 3
Method: as §2, §3, §4, §5, §6

[8] = test system: Actinobacillus actinomycetemcomitans; test: as above; assay type: cell-based; settings: four strains, Table 3
Method: as §2, §3, §4, §5, §6

[9] = test system: B. gingivalis; test: as above; assay type: cell-based; settings: five strains, Table 3
Method: as §2, §3, §4, §5, §6

[10] = test system: Actinomyces israelli; test: as above; assay type: cell-based; settings: two strains, Table 3
Method: as §2, §3, §4, §5, §6

[11] = test system: periodontopathic bacteria specific aminopeptidase activity; test: Hydrolytic activity of gingival crevicular fluid specimens, OD525 (Experiment 6); assay type: biochemical
Method: as §3, §4
Specimens of gingival crevicular fluid were collected with paper points from five subjects who were considered to be healthy from their clinical state, six subjects with gingivitis and six subjects with periodontitis. Each specimen was dispersed in Ringer's solution (1.5 ml), and the relative amount of spirochete to total bacteria: [formula] was determined with a phase contrast microscope. Further, the Ringer's solution (0.3 ml) was tested for hydrolytic activity using the substrate solution prepared in the same manner as described in Experiment 1. As substrates, there were used compounds of the formula [1], i.e., N-benzoylvalyl-glycyl-arginine-β-naphthylamide (BzVGR) and N-carbobenzoxy-valyl-glycyl-arginine-β-naphthylamide (CxVGR) were used.
According to the same manner as described in Experiment 4, hydrolytic activity was tested by using the compounds of the formulas and [2], i.e., glycyl-proline-βnaphthylamide (GP), N-benzoyl-arginyl-glycyl-phenylalanylproline-β-naphthylamide (BzRGFP), N-carbobenzoxy-valylglycyl-arginine-β-naphthylamide (CxVGR) and N-benzoylglycyl-arginine-β-naphthylamide (BzGR) alone or in combination. Hydrolytic activity was determined by measuring absorption at 525 nm (OD525) and expressed as follows.

[12] = test system: B. corporis; test: Hydrolytic activity of cell suspension on aminopeptidase substrates (Experiment 2); assay type: cell-based; settings: Table 2
In short: (§7)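 Treponema strains were cultured anaerobically in TYGVS for 7 days at 37° C.; the other bacteria grew in brain heart infusion broth for 48 to 72 hours. Each suspension, diluted to A660 1.0, hydrolysed 0.2 mM substrate over 60 minutes at 37° C., and colour developed 15 minutes before reading at 525 nm.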

[13] = test system: Treponema denticola; test: as above; assay type: cell-based; settings: four strains, Table 2
In short: as §7

[14] = test system: B. melaninogenicus; test: as above; assay type: cell-based; settings: two strains, Table 2
In short: as §7

[15] = test system: Fusobacterium nucleatum; test: as above; assay type: cell-based; settings: three strains, Table 2
In short: as §7

[16] = test system: Actinobacillus actinomycetemcomitans; test: as above; assay type: cell-based; settings: four strains, Table 2
In short: as §7

[17] = test system: B. intermedius; test: as above; assay type: cell-based; settings: three strains, Table 2
In short: as §7

[18] = test system: B. gingivalis; test: as above; assay type: cell-based; settings: five strains, Table 2
In short: as §7

[19] = test system: B. denticola; test: as above; assay type: cell-based; settings: Table 2
In short: as §7

[20] = test system: Actinomyces israelli; test: as above; assay type: cell-based; settings: two strains, Table 2
In short: as §7

- hydrolytic activity, absorption at 525 nm (OD525) ([11]; Gingivitis subject 1 (spirochete 7.3 %)): + (0.1≤OD525 <0.2)
- hydrolytic activity, absorption at 525 nm (OD525) ([11]; Gingivitis subject 2 (spirochete 16.7 %)): + (0.1≤OD525 <0.2)
- hydrolytic activity, absorption at 525 nm (OD525) ([11]; Gingivitis subject 3 (spirochete 20.5 %)): ++ (0.2≤OD525 <0.4)
- hydrolytic activity, absorption at 525 nm (OD525) ([11]; Gingivitis subject 4 (spirochete 6.8 %)): - (OD525 <0.1)
- hydrolytic activity, absorption at 525 nm (OD525) ([11]; Gingivitis subject 5 (spirochete 7.3 %)): - (OD525 <0.1)
- hydrolytic activity, absorption at 525 nm (OD525) ([11]; Healthy subject 1 (spirochete 0.1 %)): - (OD525 <0.1)
- hydrolytic activity, absorption at 525 nm (OD525) ([11]; Healthy subject 3 (spirochete 1.1 %)): - (OD525 <0.1)
- hydrolytic activity, absorption at 525 nm (OD525) ([11]; Healthy subject 4 (spirochete 0.6 %)): - (OD525 <0.1)
- hydrolytic activity, absorption at 525 nm (OD525) ([11]; Healthy subject 5 (spirochete 1.3 %)): - (OD525 <0.1)
- hydrolytic activity, absorption at 525 nm (OD525) ([11]; Periodontitis subject 1 (spirochete 45.2 %)): ++ (0.2≤OD525 <0.4)
- hydrolytic activity, absorption at 525 nm (OD525) ([11]; Periodontitis subject 2 (spirochete 30.3 %)): ++ (0.2≤OD525 <0.4)
- hydrolytic activity, absorption at 525 nm (OD525) ([11]; Periodontitis subject 3 (spirochete 34.6 %)): ++ (0.2≤OD525 <0.4)
- hydrolytic activity, absorption at 525 nm (OD525) ([11]; Periodontitis subject 4 (spirochete 21.2 %)): ++ (0.2≤OD525 <0.4)
- hydrolytic activity, absorption at 525 nm (OD525) ([11]; Periodontitis subject 5 (spirochete 40.3 %)): ++ (0.2≤OD525 <0.4)
- hydrolytic activity, absorption at 525 nm (OD525) ([11]; Periodontitis subject 6 (spirochete 35.1 %)): ++ (0.2≤OD525 <0.4)
SMILES: N=C(N)NCCC[C@H](NC(=O)CNC(=O)c1ccccc1)C(=O)Nc1ccc2ccccc2c1 [BzGR, N-benzoyl-glycyl-arginine-β-naphthylamide] (Bz-Gly-Arg-βNA)
- hydrolytic activity (average amount of released β-naphthylamine) [1]: ++ (20 ≤release amount<40 nmol/ml)
- hydrolytic activity (average amount of released β-naphthylamine) [2]: - (release amount<5 nmol/ml)
- hydrolytic activity (average amount of released β-naphthylamine) [3]: - (release amount<5 nmol/ml)
- hydrolytic activity (average amount of released β-naphthylamine) [4]: +++ (release amount≥40 nmol/ml)
- hydrolytic activity (average amount of released β-naphthylamine) [5]: - (release amount<5 nmol/ml)
- hydrolytic activity (release amount) [6]: ++ (20 ≤release amount<40 nmol/ml)
- hydrolytic activity (release amount) [7]: - (release amount<5 nmol/ml)
- hydrolytic activity (release amount) [8]: - (release amount<5 nmol/ml)
- hydrolytic activity (release amount) [9]: +++ (40≤release amount<80 nmol/ml)
- hydrolytic activity (release amount) [10]: - (release amount<5 nmol/ml)

SMILES: NCCCC[C@H](NC(=O)OCc1ccccc1)C(=O)N1CCC[C@H]1C(=O)Nc1ccc2ccccc2c1 [CxKP, N-carbobenzoxy-lysyl-proline-β-naphthylamide] (Cbz-Lys-Pro-βNA)
- hydrolytic activity (average amount of released β-naphthylamine) [12]: ++ (20 ≤release amount<40 nmol/ml)
- hydrolytic activity (average amount of released β-naphthylamine) [13]: + (10 ≤release amount<20 nmol/ml)
- hydrolytic activity (average amount of released β-naphthylamine) [14]: ++ (20 ≤release amount<40 nmol/ml)
- hydrolytic activity (average amount of released β-naphthylamine) [15]: - (release amount<5 nmol/ml)
- hydrolytic activity (average amount of released β-naphthylamine) [16]: - (release amount<5 nmol/ml)
- hydrolytic activity (average amount of released β-naphthylamine) [17]: ++ (20 ≤release amount<40 nmol/ml)
- hydrolytic activity (average amount of released β-naphthylamine) [18]: ++ (20 ≤release amount<40 nmol/ml)
- hydrolytic activity (average amount of released β-naphthylamine) [19]: ++ (20 ≤release amount<40 nmol/ml)
- hydrolytic activity (average amount of released β-naphthylamine) [20]: - (release amount<5 nmol/ml)
- hydrolytic activity (release amount) [6]: + (10 ≤release amount<20 nmol/ml)
- hydrolytic activity (release amount) [7]: - (release amount<5 nmol/ml)
- hydrolytic activity (release amount) [8]: - (release amount<5 nmol/ml)
- hydrolytic activity (release amount) [9]: ++ (20 ≤release amount<40 nmol/ml)
- hydrolytic activity (release amount) [10]: - (release amount<5 nmol/ml)
